The results in this text go back to US12606798B2, “Methods and materials for hematoendothelial differentiation of human pluripotent stem cells under defined conditions” (WISCONSIN ALUMNI RESEARCH FOUNDATION, priority 2013, dated 2026).

What all share (assay type): cell-based, human
In one test the test system is H1 hESCs. The test can be described thus: Hematopoietic differentiation of H1 hESCs in chemically defined conditions with TGFβ inhibitor, flow cytometry. How it is done:
(§1) Human pluripotent stem cells were detached from vitronectin or matrigel when they reached 80% confluency using 1× TrypLE (Life Technologies) and plated at an optimized density ranging from 5000 cells/cm^2 to 15,000 cells/cm^2 depending on the cell line onto 6-well plates coated with 0.5 μg/cm^2 of ColIV (Sigma-Aldrich) or 0.5 μg/cm^2 Tenascin-C (Millipore) in E8 media supplemented with 10 μM Rho Kinase inhibitor (Tocris Y-27632). After 24 hours (day 0), the media was changed to IF9S media supplemented with 50 ng/ml BMP4 (Peprotech), 15 ng/ml Activin A (Peprotech), 50 ng/ml FGF2 (Miltenyi Biotech), 2 mM LiCl (Sigma), and on occasion, 1 μM Rho Kinase inhibitor to increase cell viability. On day 2, the media was changed to IF9S media supplemented with 50 ng/ml FGF2 and 50 ng/ml VEGF, and 10 μM SB-431542 (Tocris) where mentioned. On day 4, the media was changed to IF9S media supplemented with 50 ng/ml FGF2, VEGF, TPO, SCF, IL-6, and 10 ng/ml IL-3. On day 6, additional IF9S media supplemented with the same 6 factors were added to the cultures without aspirating the old media (Table 3 Table 3). IF9S (IMDM/F12 with 9 supplements) was made in-house with the following: 50% IMDM 50% F12 (Life Technologies) supplemented with 64 mg/L L-ascorbic Acid 2-Phosphate Mg2+ salt (Sigma-Aldrich), 40 ul/L monothioglycerol (Sigma-Aldrich), 8.4 μg/L additional sodium selenite (Sigma-Aldrich), 10 mg/L polyvinyl alcohol (Sigma-Alderich), 1× glutamax (Life Technologies), 1× non-essential amino acids (Life Technologies), 0.1× chemically defined lipid concentrate (Life Technologies), 10.6 mg/L Holo-Transferrin (Sigma-Aldrich), and 20 mg/L Insulin (Sigma-Aldrich) (Table 2). Differentiation was conducted in hypoxic condition from day 0 to day 5, and transferred to normoxic condition from day 6 to day 9 (FIG. 1). The 1× TrypLE was used to dissociate and collect cells for analysis. Flow Cytometry was conducted using the using a FACSCalibur flow cytometer and following antibodies: CD31-FITC (clone WM59), CD34-FITC (8G12), CD41a-FITC/APC (clone HIPS), CD43-FITC/PE/APC (clone 1G10), CD45-APC (clone HI30), CD73-FITC/PE (clone AD2), CD144-FITC/PE/AlexaFluor647 (clone 55-7H1), CD235a-FITC/PE/APC (clone GA-R2), KDR-PE/AlexaFluor647 (clone 89106), PDGFRα-PE (clone aR1) (BD Biosciences), TRA-1-85-FITC/PE (clone TRA-1-85), and APLNR-APC (clone 72133) (R&D Systems). Sorting was conducted on a FACS Aria, as described previously 46. The purity of isolated populations was 92-95%. Recent studies have shown that adding TGF-β inhibitors after mesoderm specification but before endothelial development increases definitive hematopoietic differentiation.
In general terms: A flow cytometer gives signals particle by particle.

The test system of test [1] is hESCs. The test can be described thus: Mesenchymo- (MB) and hemangioblast (HB) colony assay. Particulars: day 2 and day 3 cultures; TenC compared with ColIV. Here is the method: MB and HB were detected using serum-free CFC medium supplemented with FGF2 assay as previously described^11. Day 2 or 3 cultures were dissociated and prepared in a single-cell suspension using 1× TrypLE (Life Technologies) and 5,000 cells of the total culture were plated into the CFC media. MB and HB colonies were scored 12 days after plating the single-cell suspension.

The test system of test [2] is CD43+ cells collected from H1 hESCs. Briefly: T-cell differentiation of day 9 cultures on OP9-DLL4. Conditions: CD43+ cells from day 9 cultures on the matrix, OP9-DLL4 coculture. Here is the method:
An OP9 cell line (OP9-DLL4) constitutively expressing human delta-like ligand 4 (DLL4) was established by our lab using lentivirus and was maintained similarly to OP9. After human pluripotent stem cells were differentiated for 9 days, the floating cells were collected, strained through a 70 μm cell strainer (BD Biosciences) and washed. Then, they were resuspended in T-cell differentiation media consisting of α-MEM (Gibco) supplemented with 20% FBS (Hyclone) supplemented with IL7 (5 ng/ml), Flt3L (5 ng/ml) and SCF ([…]). Then, they were plated on an OP9-DLL4 and cultured at 37° C. and 5% CO2. After 4 days, the cells were harvested using collagenase IV (Gibco) solution (1 mg/ml in DMEM/F12, Gibco) and 1× TrypLE (Invitrogen), and passaged onto a fresh layer of OP9-DLL4. After 3 days, the cells are passaged again. Subsequent passages are conducted every 7 days up to 4 weeks, after which the floating cells are collected for flow analysis and genomic DNA extraction for TCR rearrangement assay.

In test [3] the test system is hESCs. Briefly: Hematopoietic CFC assay. Particulars: day 8, TenC compared with ColIV. How it is done:
Hematopoietic CFC were detected using serum-containing H4436 Methocult™ supplemented with human recombinant SCF, G-CSF, GM-CSF, IL-3, IL-6, and EPO (Stem Cell Technologies). Hematopoietic potential of AHPs was evaluated using serum-free SF H4236 methocult with added FGF2 (20 ng/ml), SCF (20 ng/mL), IL3 (10 ng/mL), IL6 (10 ng/mL), and EPO (2 U/mL) (Stem Cell Technologies) as previously described^6. 1000-10000 differentiated cells were plated into the CFC medium and the colonies were scored after 14 days of culture.

Test [4] relates to hESCs. The test can be described thus: hPSC hematoendothelial differentiation on ColIV vs TenC in chemically defined conditions, flow cytometry. Here is the method:
as §1, with “analysis.” for “analysis. Flow Cytometry was conducted using the using a FACSCalibur flow cytometer and following antibodies: CD31-FITC (clone WM59), CD34-FITC (8G12), CD41a-FITC/APC (clone HIPS), CD43-FITC/PE/APC (clone 1G10), CD45-APC (clone HI30), CD73-FITC/PE (clone AD2), CD144-FITC/PE/AlexaFluor647 (clone 55-7H1), CD235a-FITC/PE/APC (clone GA-R2), KDR-PE/AlexaFluor647 (clone 89106), PDGFRα-PE (clone aR1) (BD Biosciences), TRA-1-85-FITC/PE (clone TRA-1-85), and APLNR-APC (clone 72133) (R&D Systems). Sorting was conducted on a FACS Aria, as described previously 46. The purity of isolated populations was 92-95%. Recent studies have shown that adding TGF-β inhibitors after mesoderm specification but before endothelial development increases definitive hematopoietic differentiation.”
Flow Cytometry was conducted using the using a FACSCalibur flow cytometer and following antibodies: CD31-FITC (clone WM59), CD34-FITC (8G12), CD41a-FITC/APC (clone HIPS), CD43-FITC/PE/APC (clone 1G10), CD45-APC (clone HI30), CD73-FITC/PE (clone AD2), CD144-FITC/PE/AlexaFluor647 (clone 55-7H1), CD235a-FITC/PE/APC (clone GA-R2), KDR-PE/AlexaFluor647 (clone 89106), PDGFRα-PE (clone aR1) (BD Biosciences), TRA-1-85-FITC/PE (clone TRA-1-85), and APLNR-APC (clone 72133) (R&D Systems). Sorting was conducted on a FACS Aria, as described previously 46. The purity of isolated populations was 92-95%.

In the case of `NC(=O)c1ccc(-c2nc(-c3ccc4c(c3)OCO4)c(-c3ccccn3)[nH]2)cc1` [SB-431542], the “development of PDGFRalpha-positive mesoderm cells” value with H1 hESCs (10 μM added from day 2 to day 4, read on day 3) is on record as “significantly decreases”. Besides, the “CD31+ differentiation” value in the test on H1 hESCs (10 μM added from day 2 to day 4, read on day 4) is “increases”. The “CD43+ population” value with H1 hESCs (10 μM added from day 2 to day 4, read on day 9) is “continues to increase”. Moreover, in the test with H1 hESCs (added from day 2 to day 4 only, day 8), the “CD43+ hematopoietic progenitors” value is listed as “significant increase”. Further, the endothelial progenitors result with H1 hESCs (added from day 2 to day 4 only, days 4 and 5) is “increases”.

As to “TenC: human Tenascin C extracellular matrix protein (GenBank CAA55309.1; Millipore CC065) used as culture substrate”, the “MB and HB colonies” value in the test with hESCs [1] is “significantly higher”. Also, the “capacity of CD43+ cells to generate CD5+CD7+ lymphoid progenitors” value in test [2] was “had a capacity”. The “progression toward CD4+CD8+ T lymphoid cells” value in test [2] (week 3) was “observed only from CD43^+ cells generated on TenC”. Moreover, the “GEMNI-CFC potential of cultures” value with hESCs [3] is on record as “significantly greater”. Also, the “CFC potential of cultures” value in the test with hESCs [3] (3 experiments, p<0.01) is on record as “higher CFC potential”. Also, the “hematopoietic differentiation potential of CB hiPSCs” value in the test on hESCs [4] (cord blood mononuclear cell-derived hiPSCs) was “restored hematopoietic differentiation potential of CB hiPSCs to the level seen with hESCs and FB hiPSCs”. For the same compound, the “percentage of KDRhiAPLNR+PDGFRalphalo/− HVMPs cells” value in the test on hESCs [4] (day 4, TenC compared with ColIV) is “consistently higher”. Moreover, the “population of total CD144+ cells (HEPs, non-HEPs, AHPs)” value with hESCs [4] (day 5, compared to cultures differentiated on ColIV) is “larger population”. Besides, the “CD43+ hematopoietic progenitors expansion” value in the test with hESCs [4] (day 8, TenC compared to ColIV) is listed as “expanded significantly more”. In the test on hESCs [4] (days 2 and 3, TenC compared with ColIV), the “APLNR+PDGFRalpha+ cells” value is reported as “significantly higher”.
